Measurements from PubChem BioAssay (NCI).
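Five compound concentrations were applied to cells in 96-well plates for 48 hours; endpoints were derived by simple linear interpolation of the resulting dose-response curve. TGI: total growth inhibition.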

What was measured:
Test in all cases: NCI-60 cell line screen, 48 h
[1] = test system: 786-0 renal
[2] = test system: A498 renal
[3] = test system: A549 NSCLC
[4] = test system: ACHN renal
[5] = test system: BT-549 breast
[6] = test system: CAKI-1 renal
[7] = test system: CCRF-CEM leukemia
[8] = test system: COLO 205 colon
[9] = test system: DU-145 prostate
[10] = test system: EKVX NSCLC
[11] = test system: HCC-2998 colon
[12] = test system: HCT-116 colon
[13] = test system: HCT-15 colon
[14] = test system: HL-60(TB) leukemia
[15] = test system: HOP-62 NSCLC
[16] = test system: HOP-92 NSCLC
[17] = test system: HS 578T breast
[18] = test system: IGROV1 ovarian
[19] = test system: K-562 leukemia
[20] = test system: KM12 colon
[21] = test system: LOX IMVI melanoma
[22] = test system: M14 melanoma
[23] = test system: MALME-3M melanoma
[24] = test system: MCF7 breast
[25] = test system: MDA-MB-231 breast
[26] = test system: MDA-MB-435
[27] = test system: MDA-N
[28] = test system: MOLT-4 leukemia
[29] = test system: NCI-H226 lung
[30] = test system: NCI-H23 lung
[31] = test system: NCI-H460 lung
[32] = test system: NCI-H522 lung
[33] = test system: NCI/ADR-RES ovarian
[34] = test system: OVCAR-3 ovarian
[35] = test system: OVCAR-4 ovarian
[36] = test system: OVCAR-5 ovarian
[37] = test system: OVCAR-8 ovarian
[38] = test system: PC-3 prostate
[39] = test system: RPMI-8226 leukemia
[40] = test system: RXF 393 renal
[41] = test system: SF-268 CNS
[42] = test system: SF-295 CNS
[43] = test system: SF-539 CNS
[44] = test system: SK-MEL-2 melanoma
[45] = test system: SK-MEL-28 melanoma
[46] = test system: SK-MEL-5 melanoma
[47] = test system: SK-OV-3 ovarian
[48] = test system: SN12C renal
[49] = test system: SNB-19 CNS
[50] = test system: SR leukemia
[51] = test system: SW-620 colon
[52] = test system: T-47D breast
[53] = test system: TK-10 renal
[54] = test system: U251 CNS
[55] = test system: UACC-257 melanoma
[56] = test system: UO-31 renal
[57] = test system: HT29 colon
[58] = test system: SNB-75 CNS
[59] = test system: UACC-62 melanoma

Structure (SMILES): NC(=O)NC(=O)Nc1ccc(Br)cc1
- TGI [1]: > 100 µM
- TGI [2]: > 100 µM
- TGI [3]: > 100 µM
- TGI [4]: > 30.3 µM
- TGI [5]: > 100 µM
- TGI [6]: > 35.1 µM
- TGI [7]: > 15.3 µM
- TGI [8]: > 28.8 µM
- TGI [9]: > 100 µM
- TGI [10]: 48.4 µM
- TGI [11]: > 31.9 µM
- TGI [12]: > 49.6 µM
- TGI [13]: > 65.4 µM
- TGI [14]: > 6.62 µM
- TGI [15]: > 30.8 µM
- TGI [16]: > 100 µM
- TGI [17]: > 100 µM
- TGI [18]: > 100 µM
- TGI [19]: > 100 µM
- TGI [20]: > 32.8 µM
- TGI [21]: > 56.9 µM
- TGI [22]: > 45.1 µM
- TGI [23]: > 27.9 µM
- TGI [24]: > 100 µM
- TGI [25]: > 42.1 µM
- TGI [26]: > 22 µM
- TGI [27]: > 100 µM
- TGI [28]: > 100 µM
- TGI [29]: > 39.1 µM
- TGI [30]: > 33.3 µM
- TGI [31]: > 36.4 µM
- TGI [32]: > 40 µM
- TGI [33]: > 63.5 µM
- TGI [34]: > 20.7 µM
- TGI [35]: > 38.5 µM
- TGI [36]: > 100 µM
- TGI [37]: > 34.6 µM
- TGI [38]: > 100 µM
- TGI [39]: > 35 µM
- TGI [40]: > 100 µM
- TGI [41]: > 16.5 µM
- TGI [42]: > 100 µM
- TGI [43]: > 100 µM
- TGI [44]: > 20.7 µM
- TGI [45]: > 17.7 µM
- TGI [46]: > 18.6 µM
- TGI [47]: > 100 µM
- TGI [48]: > 100 µM
- TGI [49]: > 39.3 µM
- TGI [50]: > 100 µM
- TGI [51]: > 29.4 µM
- TGI [52]: > 100 µM
- TGI [53]: > 100 µM
- TGI [54]: > 52.3 µM
- TGI [55]: > 100 µM
- TGI [56]: > 100 µM

Structure (SMILES): O=S1(=O)C[C@H](NCc2ccccc2)[C@H](NCc2ccccc2)C1
- TGI [3]: > 100 µM
- TGI [4]: > 100 µM
- TGI [5]: > 100 µM
- TGI [6]: > 100 µM
- TGI [7]: > 100 µM
- TGI [8]: > 100 µM
- TGI [9]: > 100 µM
- TGI [10]: > 100 µM
- TGI [11]: > 100 µM
- TGI [12]: > 100 µM
- TGI [15]: > 100 µM
- TGI [16]: > 100 µM
- TGI [17]: > 100 µM
- TGI [57]: > 100 µM
- TGI [18]: > 100 µM
- TGI [19]: > 100 µM
- TGI [20]: > 100 µM
- TGI [21]: > 100 µM
- TGI [22]: > 100 µM
- TGI [23]: > 100 µM
- TGI [24]: > 100 µM
- TGI [25]: > 100 µM
- TGI [26]: > 100 µM
- TGI [27]: > 100 µM
- TGI [28]: > 100 µM
- TGI [29]: > 100 µM
- TGI [30]: > 100 µM
- TGI [31]: > 100 µM
- TGI [32]: 68.2 µM
- TGI [33]: > 100 µM
- TGI [34]: > 100 µM
- TGI [35]: > 100 µM
- TGI [36]: > 100 µM
- TGI [37]: > 100 µM
- TGI [38]: > 100 µM
- TGI [39]: 86.7 µM
- TGI [40]: > 100 µM
- TGI [41]: > 100 µM
- TGI [42]: > 100 µM
- TGI [43]: > 100 µM
- TGI [44]: > 100 µM
- TGI [45]: > 100 µM
- TGI [46]: > 100 µM
- TGI [47]: > 100 µM
- TGI [48]: > 100 µM
- TGI [49]: > 100 µM
- TGI [58]: > 100 µM
- TGI [50]: > 100 µM
- TGI [51]: > 100 µM
- TGI [52]: 86.4 µM
- TGI [53]: > 100 µM
- TGI [54]: > 100 µM
- TGI [55]: > 100 µM
- TGI [59]: > 100 µM
- TGI [56]: > 100 µM
